Results published in ChEMBL document CHEMBL1201862, “PubChem BioAssay data set” (2004).
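Interpolation was linear, between the two tested concentrations surrounding the appropriate level; five concentrations were tested over 48 hours in 96-well plates. GI50 marks 50% less growth.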 Active and inactive are the calls of the source. Rule as the data show it: active = GI50 up to about 1.1 µM and inactive = higher.

Columns and labels:
Assay in all cases: NCI-60 cell line screen, 48 h
786-0 = test system: 786-0
HCC 2998 = test system: HCC 2998
HOP-92 = test system: HOP-92
HT-29 = test system: HT-29
IGROV-1 = test system: IGROV-1
K562 = test system: K562
KM-20L2 = test system: KM-20L2
LOX IMVI = test system: LOX IMVI
M14 = test system: M14
Malme-3M = test system: Malme-3M
NCI-H226 = test system: NCI-H226
NCI-H522 = test system: NCI-H522
OVCAR-3 = test system: OVCAR-3
OVCAR-5 = test system: OVCAR-5
RPMI-8226 = test system: RPMI-8226
RXF 393 = test system: RXF 393
SK-MEL-5 = test system: SK-MEL-5
SW-620 = test system: SW-620
UACC-62 = test system: UACC-62
OVCAR-4 = test system: OVCAR-4

Measured: GI50

CCCCCC/C(CC(=O)CCC(=O)NCCc1ccccc1)=N\Nc1ccc([N+](=O)[O-])cc1[N+](=O)[O-]
inactive: 786-0 > 100 µM | HCC 2998 > 100 µM | HOP-92 41.7 µM | HT-29 > 100 µM | IGROV-1 > 100 µM | K562 38.1 µM | KM-20L2 > 100 µM | LOX IMVI 34.7 µM | M14 > 100 µM | Malme-3M > 100 µM | NCI-H226 60.4 µM | NCI-H522 39.9 µM | OVCAR-3 51.3 µM | OVCAR-5 > 100 µM | RPMI-8226 27 µM | RXF 393 > 100 µM | SK-MEL-5 70.1 µM | SW-620 68.1 µM | UACC-62 30.5 µM

O=C1C=CC(=O)c2cc(Sc3ccccc3)c(=O)c(Sc3ccccc3)cc21
inactive: 786-0 88.5 µM | HCC 2998 > 100 µM | HOP-92 18.9 µM | HT-29 > 100 µM | IGROV-1 68.5 µM | K562 28.1 µM | KM-20L2 > 100 µM | LOX IMVI > 100 µM | M14 > 100 µM | NCI-H226 > 100 µM | NCI-H522 12.4 µM | OVCAR-3 50.9 µM | OVCAR-4 53.3 µM | RPMI-8226 37.3 µM | RXF 393 14 µM | SK-MEL-5 > 100 µM | SW-620 > 100 µM | UACC-62 24.8 µM

CCOc1ccc(/N=N/c2ccc3oc(=O)c(/C(C)=N/NC(=O)CC(=O)Nc4cccc(OC)c4)cc3c2)cc1
inactive: 786-0 10.5 µM | HCC 2998 15.6 µM | HOP-92 19.1 µM | IGROV-1 23.6 µM | K562 7.96 µM | KM-20L2 > 31.6 µM | LOX IMVI 17.2 µM | M14 16.4 µM | Malme-3M 16.8 µM | NCI-H226 > 39.7 µM | NCI-H522 21.4 µM | OVCAR-3 13.4 µM | OVCAR-4 16.3 µM | OVCAR-5 > 46.6 µM | RPMI-8226 8.53 µM | RXF 393 17.3 µM | SK-MEL-5 20.2 µM | SW-620 21.4 µM | UACC-62 13.2 µM

CN(C)/N=N/c1ccc(S(N)(=O)=O)cc1
inactive: 786-0 > 100 µM | HCC 2998 > 100 µM | HOP-92 > 100 µM | HT-29 > 100 µM | IGROV-1 > 100 µM | K562 > 100 µM | KM-20L2 > 100 µM | LOX IMVI > 100 µM | M14 > 100 µM | Malme-3M > 100 µM | NCI-H226 > 100 µM | NCI-H522 > 100 µM | OVCAR-3 > 100 µM | OVCAR-4 > 100 µM | OVCAR-5 > 100 µM | RPMI-8226 > 100 µM | SK-MEL-5 > 100 µM | SW-620 > 100 µM | UACC-62 > 100 µM

Cc1cccc(N2C(=O)C(=O)C(c3nc4ccccc4s3)/C(=N/NC(=S)NN)C2=O)c1C (stereo not drawn)
inactive: 786-0 > 100 µM | HCC 2998 > 100 µM | HOP-92 > 100 µM | IGROV-1 > 100 µM | K562 > 100 µM | KM-20L2 > 100 µM | LOX IMVI > 100 µM | M14 > 100 µM | Malme-3M > 100 µM | NCI-H226 > 100 µM | NCI-H522 > 100 µM | OVCAR-3 > 100 µM | OVCAR-4 > 100 µM | OVCAR-5 > 100 µM | RPMI-8226 > 100 µM | RXF 393 > 100 µM | SK-MEL-5 > 100 µM | SW-620 > 100 µM | UACC-62 > 100 µM

N#Cc1ccccc1NC(=O)C(=O)C(C(=O)c1ccncc1)C1OC(=O)c2ccccc21 (stereo not drawn)
inactive: 786-0 > 100 µM | HCC 2998 > 100 µM | HOP-92 > 100 µM | HT-29 > 100 µM | IGROV-1 > 100 µM | K562 > 100 µM | KM-20L2 > 100 µM | LOX IMVI > 100 µM | M14 > 100 µM | Malme-3M > 100 µM | NCI-H226 > 100 µM | NCI-H522 > 100 µM | OVCAR-3 > 100 µM | OVCAR-4 > 100 µM | OVCAR-5 > 100 µM | RXF 393 > 100 µM | SK-MEL-5 > 100 µM | SW-620 > 100 µM | UACC-62 > 100 µM

COc1cc2ccn3c4cc(OC)c(OC)cc4cc3c2cc1OC
inactive: 786-0 33.5 µM | HCC 2998 > 100 µM | HOP-92 > 100 µM | HT-29 > 100 µM | K562 > 100 µM | KM-20L2 > 100 µM | M14 63.1 µM | Malme-3M > 100 µM | NCI-H226 > 100 µM | NCI-H522 11.3 µM | OVCAR-3 58.6 µM | OVCAR-4 > 100 µM | OVCAR-5 > 100 µM | RPMI-8226 5.6 µM | SW-620 > 100 µM | UACC-62 > 100 µM

CCOP(=O)(Cc1ccc(CP(=O)(OCC)OCC)n1C)OCC
inactive: 786-0 > 100 µM | HCC 2998 > 100 µM | HOP-92 > 100 µM | HT-29 > 100 µM | IGROV-1 > 100 µM | K562 > 100 µM | KM-20L2 > 100 µM | LOX IMVI > 100 µM | M14 > 100 µM | Malme-3M > 100 µM | NCI-H522 > 100 µM | OVCAR-3 > 100 µM | OVCAR-4 > 100 µM | OVCAR-5 > 100 µM | RPMI-8226 > 100 µM | RXF 393 > 100 µM | SK-MEL-5 > 100 µM | SW-620 > 100 µM | UACC-62 > 100 µM
